Values of other authors as cited in patent US9358209B2, “Econazole composition and methods of treatment therewith” (Exeltis USA Dermatology, Inc., priority 2010, dated 2016).

What was measured:
dermatophytes and yeasts = conditions: most strains of E. floccosum, M. audouinii, M. canis, M. gypseum, T. mentagrophytes, T. rubrum, T. tonsurans, C. albicans, M. furfur
[1] = Liao et al., Yao Xue Xue Bao 28(1):22-7 (1993)

Structure (SMILES)	activity against dermatophytes and yeasts (dermatophytes and yeasts)	antifungal activity relative to other stereoisomer [1]
Clc1ccc(COC(Cn2ccnc2)c2ccc(Cl)cc2Cl)cc1 (centres unmarked) [Econazole nitrate]	has shown activity	–
Clc1ccc(CO[C@@H](Cn2ccnc2)c2ccc(Cl)cc2Cl)cc1 [(R)-(−)-econazole]	–	greater antifungal activity
